# Where two headings read alike, the source gives them in different places. Marks after values point to notes of the source that are not given here.
# Experiments:
# [1] = tested on: D-Galactosamine (Gal N) induced hepatic injury in rats; assay: Hepatoprotective activity, curative study, D-Galactosamine; type: in vivo
# [2] = tested on: CCl4, Paracetamol, Galactosamine and alcohol as hepatotoxins; assay: Antihepatotoxicity/hepato-protective activity in vivo, overall comparison with silymarin; settings: prophylactic and curative aspects in vivo
# [3] = tested on: CCl4 administration in mice
# [4] = tested on: D-Galactosamine (Gal N) induced hepatic injury in rats; assay: Hepatoprotective activity, prophylactic study, D-Galactosamine; type: in vivo
# [5] = tested on: CCl4 induced hepatic injury in rats; assay: Hepatoprotective activity, curative study, CCl4; type: in vivo; settings: 12.5 mg/kg p.o. + CCl4, curative
# [6] = 12.5 mg/kg p.o. + Gal N, curative
# [7] = 25 mg/kg p.o. + Gal N, curative
# [8] = 50 mg/kg p.o. + Gal N, curative
# [9] = TCA alone 50 mg/kg p.o., no Gal N, curative study
# [10] = 12.5 mg/kg p.o. 1 h before CCl4, mice
# [11] = 25 mg/kg p.o. 1 h before CCl4, mice
# [12] = 50 mg/kg p.o. 1 h before CCl4, mice
# [13] = 100 mg/kg p.o. 1 h before CCl4, mice
# [14] = 12.5 mg/kg p.o. + Gal N, prophylactic
# [15] = 25 mg/kg p.o. + Gal N, prophylactic
# [16] = 50 mg/kg p.o. + Gal N, prophylactic
# [17] = TCA alone 100 mg/kg p.o., no Gal N, prophylactic study
structure (smiles),measurement,setting,value
"CCCCCCCC/C=C/CCCCCCCCCCCCCC(=O)O [TCA, t-Tetracos-15-enoic acid]",Serum ALP,[1]; [6],46.03 ± 2.35^NS μmole of p-niotrophenol formed/min/L
same,"Serum ALP, hepatoprotective activity percent",[1]; [6],(43.65 ± 6.96) percent
same,Serum Bilirubin,[1]; [6],0.56 ± 0.03 mg %
same,"Serum Bilirubin, hepatoprotective activity percent",[1]; [6],(46.75 ± 3.74) percent
same,Serum GOT,[1]; [6],494.53 ± 41.13 Units
same,"Serum GOT, hepatoprotective activity percent",[1]; [6],(34.12 ± 6.65) percent
same,Serum GPT,[1]; [6],578.14 ± 57.37 Units
same,"Serum GPT, hepatoprotective activity percent",[1]; [6],(40.40 ± 7.08) percent
same,Serum Triglycerides,[1]; [6],11.85 ± 0.75^NS mg %
same,"Serum Triglycerides, hepatoprotective activity percent",[1]; [6],(32.78 ± 8.37) percent
same,Serum ALP,[1]; [7],38.87 ± 2.62 μmole of p-niotrophenol formed/min/L
same,"Serum ALP, hepatoprotective activity percent",[1]; [7],(64.83 ± 7.74) percent
same,Serum Bilirubin,[1]; [7],0.46 ± 0.03 mg %
same,"Serum Bilirubin, hepatoprotective activity percent",[1]; [7],(59.74 ± 4.04) percent
same,Serum GOT,[1]; [7],449.93 ± 31.58 Units
same,"Serum GOT, hepatoprotective activity percent",[1]; [7],(41.37 ± 5.10) percent
same,Serum GPT,[1]; [7],518.66 ± 42.64 Units
same,"Serum GPT, hepatoprotective activity percent",[1]; [7],(47.74 ± 5.26) percent
same,Serum Triglycerides,[1]; [7],10.48 ± 0.91^NS mg %
same,"Serum Triglycerides, hepatoprotective activity percent",[1]; [7],(46.11 ± 9.77) percent
same,Serum ALP,[1]; [8],36.94 ± 1.87 μmole of p-niotrophenol formed/min/L
same,"Serum ALP, hepatoprotective activity percent",[1]; [8],(71.88 ± 5.54) percent
same,Serum Bilirubin,[1]; [8],0.35 ± 0.02 mg %
same,"Serum Bilirubin, hepatoprotective activity percent",[1]; [8],(73.16 ± 2.95) percent
same,Serum GOT,[1]; [8],391.66 ± 29.53 Units
same,"Serum GOT, hepatoprotective activity percent",[1]; [8],(50.76 ± 4.78) percent
same,Serum GPT,[1]; [8],412.17 ± 31.17 Units
same,"Serum GPT, hepatoprotective activity percent",[1]; [8],(60.88 ± 3.85) percent
same,Serum Triglycerides,[1]; [8],9.23 ± 0.59 mg %
same,"Serum Triglycerides, hepatoprotective activity percent",[1]; [8],(61.84 ± 6.59) percent
same,Serum ALP,[1]; [9],24.45 ± 2.76 μmole of p-niotrophenol formed/min/L
same,Serum Bilirubin,[1]; [9],0.19 ± 0.02 mg %
same,Serum GOT,[1]; [9],91.07 ± 10.50 Units
same,Serum GPT,[1]; [9],105.02 ± 18.74 Units
same,Serum Triglycerides,[1]; [9],6.44 ± 0.38 mg %
same,antihepatotoxicity/hepato-protective activity compared with silymarin,[2],better protection and reversal of biochemical parameters better then those obtained with silymarin
same,Zoxazolamine Hepatoprotection,[3]; [10],40.10 ± 6.55%
same,Zoxazolamine Paralysis time,[3]; [10],39.00 ± 1.93*^c min
same,Zoxazolamine Hepatoprotection,[3]; [11],51.40 ± 11.12%
same,Zoxazolamine Paralysis time,[3]; [11],35.66 ± 3.28**^c min
same,Zoxazolamine Hepatoprotection,[3]; [12],70.61 ± 7.68%
same,Zoxazolamine Paralysis time,[3]; [12],30.00 ± 2.26**^c min
same,Zoxazolamine Hepatoprotection,[3]; [13],84.17 ± 6.55%
same,Zoxazolamine Paralysis time,[3]; [13],26.00 ± 1.93**^c min
same,Serum ALP,[4]; [14],47.07 ± 2.98 μmole of p-nitrophenol formed/min/L
same,"Serum ALP, hepatoprotective activity percent",[4]; [14],(30.88 ± 7.77) percent
same,Serum Bilirubin,[4]; [14],0.56 ± 0.03 mg %
same,"Serum Bilirubin, hepatoprotective activity percent",[4]; [14],(39.49 ± 4.59) percent
same,Serum GOT,[4]; [14],613.20 ± 65.19 Units
same,"Serum GOT, hepatoprotective activity percent",[4]; [14],(34.60 ± 7.57) percent
same,Serum GPT,[4]; [14],743.62 ± 66.83 Units
same,"Serum GPT, hepatoprotective activity percent",[4]; [14],(39.30 ± 6.25) percent
same,Serum Triglycerides,[4]; [14],26.49 ± 1.88 mg %
same,"Serum Triglycerides, hepatoprotective activity percent",[4]; [14],(37.38 ± 6.18) percent
same,Serum ALP,[4]; [15],40.49 ± 2.29 μmole of p-nitrophenol formed/min/L
same,"Serum ALP, hepatoprotective activity percent",[4]; [15],(51.62 ± 6.31) percent
same,Serum Bilirubin,[4]; [15],0.44 ± 0.05 mg %
same,"Serum Bilirubin, hepatoprotective activity percent",[4]; [15],(58.00 ± 3.86) percent
same,Serum GOT,[4]; [15],505.26 ± 29.63 Units
same,"Serum GOT, hepatoprotective activity percent",[4]; [15],(47.68 ± 3.99) percent
same,Serum GPT,[4]; [15],635.11 ± 54.67 Units
same,"Serum GPT, hepatoprotective activity percent",[4]; [15],(49.35 ± 5.16) percent
same,Serum Triglycerides,[4]; [15],23.58 ± 2.02 mg %
same,"Serum Triglycerides, hepatoprotective activity percent",[4]; [15],(46.97 ± 6.67) percent
same,Serum ALP,[4]; [16],34.94 ± 1.43 μmole of p-nitrophenol formed/min/L
same,"Serum ALP, hepatoprotective activity percent",[4]; [16],(66.91 ± 3.92) percent
same,Serum Bilirubin,[4]; [16],0.36 ± 0.02 mg %
same,"Serum Bilirubin, hepatoprotective activity percent",[4]; [16],(70.76 ± 2.78) percent
same,Serum GOT,[4]; [16],406.05 ± 25.82 Units
same,"Serum GOT, hepatoprotective activity percent",[4]; [16],(61.05 ± 3.48) percent
same,Serum GPT,[4]; [16],413.53 ± 23.94 Units
same,"Serum GPT, hepatoprotective activity percent",[4]; [16],(70.34 ± 2.25) percent
same,Serum Triglycerides,[4]; [16],21.37 ± 1.51 mg %
same,"Serum Triglycerides, hepatoprotective activity percent",[4]; [16],(54.25 ± 4.97) percent
same,Serum ALP,[4]; [17],19.84 ± 1.58 μmole of p-nitrophenol formed/min/L
same,Serum Bilirubin,[4]; [17],0.20 ± 0.02 mg %
same,Serum GOT,[4]; [17],122.47 ± 11.84 Units
same,Serum GPT,[4]; [17],95.22 ± 8.74 Units
same,Serum Triglycerides,[4]; [17],8.79 ± 0.55 mg %
same,Serum ALP,[5],51.81 ± 3.94^NS μmole of p-nitrophenol formed/min/L
